Here are results for 3 molecules from US11384101B2, “Oral care compositions” (priority 2017, dated 2022).

Structures are written as SMILES. Where two headings read alike, the source gives them in different places.

The subject of one series is oral bacteria. In words: Alamar Blue assay of antibacterial efficacy in the presence of SLS. The series is classed as cell-based, oral bacteria from human saliva. As to conditions: 1 hour after addition of dye; for presence or absence of live bacteria (indicated by color): Alamar Blue assay in the presence of SLS; for Color of Solution: Alamar Blue, 10 mg active + 20 mg of 30 weight % SLS solution + 5 ml oral bacteria solution, 37° C., blue to red indicates live bacteria. The method, then:
Table 1 describes the results of an assay evaluating the antibacterial efficacy of an exemplary CPC-ZnCl2 complex of the present invention, in the presence of an anionic surfactant. […] A negative control was also prepared adding 20 mg (+/− 0.9 mg) of the 30 weight % SLS aqueous solution and 5 ml of the prepared oral bacteria solution to deionized water instead of the antibacterial ingredient. The samples were then placed in a 37° C. oven and shaken at 100 RPM for 30 minutes. 200 μL of Alamar Blue dye was then added to each sample and placed back in the 37° C. oven and shaken at 100 RPM. The samples were then monitored every 30 minutes, with the results 1 hour after addition of the dye recorded in Table 1.
(In general: Resazurin is reduced to fluorescent resorufin, in cell work by metabolically active cells.)

Setting [1] is: deionized water, physiological temperature (36-37° C.).
Setting [2] is: deionized water, room temperature (23-24° C.).
The mark [3] stands for this setting: deionized water, room temperature (23-24° C.), even after 24 hours of aging.

Consider `CCCCCCCCCCCCCCCC[n+]1ccccc1` [CPC, Cetylpyridinium chloride], for which, in the series with oral bacteria, the “presence or absence of live bacteria (indicated by color)” value (shortened to “presence or absence of live bacteria”) is given as “presence of live bacteria” and the “Color of Solution” value is “Pink”.
With `CCCCCCCCCCCCCCCC[n+]1ccccc1.CCCCCCCCCCCCCCCC[n+]1ccccc1.[Cl][Zn-2]([Cl])([Cl])[Cl]` [CPC-ZnCl2 complex, [(C21H38N)2][ZnCl4]], in the series with oral bacteria, the “presence or absence of live bacteria” value is recorded as “absence of live bacteria” and the “Color of Solution” value was “Blue”. Under setting [1], the “solubility of 1.0 weight % aqueous solution” value is on record as “soluble” and the “solubility of 10 weight % aqueous solution” value is “not fully soluble”. In addition, under setting [2], the “solubility of 0.1 weight % aqueous solution” value is “soluble” and the “solubility of 0.5 weight % aqueous solution” value is reported as “soluble”. Further, under setting [3], the “solubility of 1.0 weight % aqueous solution” value is listed as “undissolved” and the “solubility of 10.0 weight % aqueous solution” value is reported as “undissolved”. For the same molecule, the “reduction in solubility compared to the CPC and ZnCl2 reactants separately” value (water) is reported as no less than 25 fold.
On to `[Cl-].[Cl-].[Zn+2]` [ZnCl2, zinc chloride], for which, in the series with oral bacteria, the “presence or absence of live bacteria” value was “presence of live bacteria” and the “Color of Solution” value is recorded as “Purple”.
